Assay [1] has as its system NCI-H358 cells (K-Ras G12C). Nature of the assay: Potency assay: pERK in NCI-H358 cells. It is filed as cell-based, human. The settings on record: Homo sapiens, NCI-H358; H358 KRAS G12C; read-out: pERK EC50. A digest of the protocol: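 Compounds are dosed as ten 3-fold dilutions from a 10 mM DMSO stock, in duplicate, and left on cells for 4 h at 37 °C, 5% CO2. Phospho-ERK1/2 is then quantified by AlphaLISA SureFire Ultra or In-Cell Western, and IC50 is derived from a 4-parameter sigmoid against log concentration.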

Assay [2] deals with NCI-H358 (K-Ras G12C). Nature of the assay: CellTiter-Glo cell viability assay, NCI-H358. The settings on record: Homo sapiens, NCI-H358, 120 h, NCI-H358, 5-day treatment; class symbols; read-out: Additional H358 Cell Viability assay data (K-Ras G12C, IC50). It is filed as cell-based, human. An outline of the steps:
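Four-parameter logistic fits were applied to luminescence data normalized against DMSO-treated wells. Readings were taken on day 5 following direct compound addition, after roughly 30 minutes at room temperature.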
On the technique in general: Cellular ATP, detected with luciferase, serves as a proxy for viable cell number.

Assay [3] deals with KRAS G12V (Homo sapiens (Human), UniProt P01116+P62937, G12V). As to the kind of experiment: Ras-Raf (BRAF RBD) disruption / FRET / MOA assay, KRAS G12V. Format: biochemical. The settings on record: read-out: IC50* KRAS G12V FRET data. An outline of the steps: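 Ternary complex formation (Ras–compound–cyclophilin A) displacing BRAF RBD, monitored by TR-FRET. Three hours at 25° C with compound (top 30 μM final), then 1.5 h with the labelled antibodies. Lower ratio than DMSO indicates disruption; IC50 reported.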
Sequence of KRAS G12V (P01116-2 other isoform, or with tags, fused parts or gaps G12V): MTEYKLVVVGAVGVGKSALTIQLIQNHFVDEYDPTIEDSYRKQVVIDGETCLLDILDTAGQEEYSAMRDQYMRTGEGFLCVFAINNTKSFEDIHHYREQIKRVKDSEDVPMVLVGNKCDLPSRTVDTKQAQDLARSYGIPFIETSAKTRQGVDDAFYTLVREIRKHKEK
Sequence of KRAS G12V (P62937 whole entry): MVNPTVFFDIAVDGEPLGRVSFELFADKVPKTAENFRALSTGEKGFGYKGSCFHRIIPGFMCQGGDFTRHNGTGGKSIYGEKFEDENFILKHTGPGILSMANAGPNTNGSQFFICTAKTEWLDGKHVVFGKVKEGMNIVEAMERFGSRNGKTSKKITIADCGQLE

The target of assay [4] is NRAS WT (Homo sapiens (Human), UniProt P01111+P62937). As to the kind of experiment: Ras-Raf (BRAF RBD) disruption / FRET / MOA assay, NRAS WT. The settings on record: read-out: IC50* NRAS WT FRET data. Format: biochemical. An outline of the steps: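 Compounds were tested as a 10-point 3-fold dilution series from 30 μM final for their ability to drive ternary complex formation between nucleotide-loaded Ras and cyclophilin A, displacing the BRAF RBD. After 3 h at 25° C., anti-His Eu-W1024 (10 nM) and anti-GST allophycocyanin (50 nM) were added for 1.5 h. A TR-FRET ratio decrease versus DMSO gave IC50.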
Sequence of NRAS WT (P01111 whole entry): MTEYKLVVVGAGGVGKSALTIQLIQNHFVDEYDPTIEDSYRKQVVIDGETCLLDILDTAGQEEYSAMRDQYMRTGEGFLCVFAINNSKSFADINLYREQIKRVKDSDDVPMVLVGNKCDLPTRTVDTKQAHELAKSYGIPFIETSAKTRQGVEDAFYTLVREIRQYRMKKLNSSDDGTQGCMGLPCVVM
Sequence of NRAS WT (P62937 whole entry): as the sequence (P62937 whole entry) above

pEC50, pIC50: −log10 of the molar value.

A word on the pEC50: it is the negative decadic logarithm of the EC50, by convention in mol/L. For orientation: pIC50 means −log10 of the IC50, conventionally taken in molar units. For `CCn1c(-c2cccnc2[C@H](C)OC)c2c3cc(ccc31)-c1csc(n1)C[C@H](NC(=O)[C@H](C(C)C)N(C)C(=O)N(C)C1CN(C(=O)/C=C/[C@@H]3CCCN3C)C1)C(=O)N1CCC[C@H](N1)C(=O)OCC(C)(C)C2` (atropisomer, axis not shown) [Example A730], the pEC50 in assay [1] was > 5.30. In addition, the pIC50 in assay [2] was 7.00 to 8.00; in assay [3] it was 5.00 to 6.00; in assay [4], 6.00 to 7.00.

With `CC#CC(=O)N1CC(N(C)C(=O)N(C)[C@H](C(=O)N[C@H]2Cc3nc(cs3)-c3ccc4c(c3)c(c(-c3cccnc3[C@H](C)OC)n4CC)CC(C)(C)COC(=O)[C@@H]3CCCN(N3)C2=O)C(C)C)C1` (atropisomer, axis not shown) [Example A731], in assay [1], the pEC50 was > 5.30. Moreover, the pIC50 was 6.00 to 7.00 in assay [2], 5.00 to 6.00 in assay [3] and 6.00 to 7.00 in assay [4].

Consider `C=C(F)C(=O)N1CC(N(C)C(=O)N(C)[C@H](C(=O)N[C@H]2Cc3nc(cs3)-c3ccc4c(c3)c(c(-c3cccnc3[C@H](C)OC)n4CC)CC(C)(C)COC(=O)[C@@H]3CCCN(N3)C2=O)C(C)C)C1` (atropisomer, axis not shown) [Example A732], for which, in assay [1], the pEC50 was > 5.30. Besides, the pIC50 is 7.00 to 8.00 in assay [2], 5.00 to 6.00 in assay [3] and 6.00 to 7.00 in assay [4].

Take `C=CC(=O)N1CCN(C(=O)N(C)[C@H](C(=O)N[C@H]2Cc3nc(cs3)-c3ccc4c(c3)c(c(-c3cccnc3[C@H](C)OC)n4CC)CC(C)(C)COC(=O)[C@@H]3CCCN(N3)C2=O)C(C)C)[C@H]2C[C@H]21` (atropisomer, axis not shown) [Example A737]: the pEC50 in assay [1] is > 5.30. In addition, the pIC50 in assay [2] was 7.00 to 8.00; in assay [3], 6.00 to 7.00; in assay [4], 7.00 to 8.00.

`C=CS(=O)(=O)N1CCC(C(=O)N(C)[C@H](C(=O)N[C@H]2Cc3nc(cs3)-c3ccc4c(c3)c(c(-c3cncnc3)n4CC)CC(C)(C)COC(=O)[C@@H]3CCCN(N3)C2=O)C(C)C)C1` (single isomer, unassigned) [Example A170]: the pEC50 in assay [1] is > 5.30. Moreover, the pIC50 is 6.00 to 7.00 in assay [2], < 5.00 in assay [3] and < 5.00 in assay [4].

In the case of `C=CS(=O)(=O)N1CCC(C(=O)N(C)[C@H](C(=O)N[C@H]2Cc3cccc(c3)-c3ccc4c(c3)c(c(-c3cncnc3)n4CC)CC(C)(C)COC(=O)[C@@H]3CCCN(N3)C2=O)C(C)C)C1` (single isomer, unassigned) [Example A171], the pEC50 in assay [1] is > 5.30. Further, the pIC50 in assay [2] is 6.00 to 7.00; in assay [3], < 5.00; in assay [4] it was < 5.00.

In the case of `C=CC(=O)N1CC[C@H](C(=O)N(C)[C@H](C(=O)N[C@H]2Cc3cc(ccn3)-c3ccc4c(c3)c(c(-c3cccnc3COC)n4CC)CC(C)(C)COC(=O)[C@@H]3CCCN(N3)C2=O)C(C)C)C1` [Example A136], the pEC50 in assay [1] is > 5.30. In addition, the pIC50 in assay [2] is < 6.00; in assay [3] it was < 5.00; in assay [4], < 5.00.

With `C=CC(=O)N1CC[C@H](C(=O)N(C)[C@H](C(=O)N[C@H]2Cc3cc(O)cc(c3)-c3ccc4c(c3)c(c(-c3cncs3)n4CC)CC(C)(C)COC(=O)[C@@H]3CCCN(N3)C2=O)C(C)C)C1` [Example A143], the pEC50 in assay [1] was > 5.30. For the same compound, the pIC50 is 7.00 to 8.00 in assay [2], 5.00 to 6.00 in assay [3] and < 5.00 in assay [4].

Consider `C=CC(=O)N1CC[C@H](C(=O)N(C)[C@H](C(=O)N[C@H]2Cc3cc(O)cc(c3)-c3ccc4c(c3)c(c(-c3cccc(=O)n3C(C)C)n4CC)CC(C)(C)COC(=O)[C@@H]3CCCN(N3)C2=O)C(C)C)C1` [Example A151], for which the pEC50 in assay [1] was > 5.30. Moreover, the pIC50 was 6.00 to 7.00 in assay [2], 5.00 to 6.00 in assay [3] and 5.00 to 6.00 in assay [4].

The values are drawn from patent US11566007B2, “Ras inhibitors” (Revolution Medicines, Inc., priority 2019, dated 2023).
